Experimental findings from patent publication US20130131321A1, “LIGANDS FOR ANTIBODY AND Fc-FUSION PROTEIN PURIFICATION BY AFFINITY CHROMATOGRAPHY” (GRAFFINITY PHARMACEUTICALS GMBH, priority 2010, published 2013) are described below.

The test system of one assay is Bevacizumab Fab fragment. Description: SPR screening of chemical microarrays, Bevacizumab Fab fragment. Format: binding, humanized. The conditions noted are these: chemical microarray, immobilized ligand. The text has this:
(§1) Graffinity has developed high density chemical microarrays comprising thousands of small molecules immobilized onto gold chips. The arrays are constructed using maleimide-thiol coupling chemistry in combination with high density pintool spotting. For the construction, glass plates are microstructured by photolithographical methods in order to define up to 9,216 sensor fields per array. A subsequently applied gold coating provides the basis for the SPR effect and enables the formation of a binary, mixed self assembled monolayer (SAM) of two different thiols. […]
(§2) Surface plasmons are collective oscillations of electrons at a metal surface which can be resonantly excited by polarized light of appropriate wavelength and incidence angle. […] Processes which alter the local refractive index in close proximity to the metal surface (such as antibody binding to the immobilized ligands) can therefore be monitored sensitively. […] While scanning over a range of wavelengths covering the SPR resonance conditions, reflection images are recorded stepwise. […]
(§3) The experimental results of the microarray screening campaigns were analyzed by manual hit selection using in-house developed software routines as well as by an in-depth data analysis by commercially available data mining tools. […]

The next assay relates to Anti RhD IgG. Kind of assay: SPR screening of chemical microarrays, Anti RhD IgG. Type of assay: binding. The conditions noted are these: chemical microarray, immobilized ligand.
Text: as §1, §2, §3

In assay [1] the target is T1, Bevacizumab (Homo sapiens, UniProt P01857).
T1 construct: fused on or other part: humanised anti-VEGF-A VH domain N-terminal of the gamma-1 constant region (engineered, no UniProt entry)
Description: Microtiter plate chromatography of resins, Bevacizumab whole IgG (bound, yield, selectivity). Type of assay: binding, humanized.

Another assay has as its system Tocilizumab. Description: Microtiter plate chromatography of resins, Tocilizumab (bound, yield). Format: binding, humanized.
The test system of the next assay is Palivizumab. Kind of assay: Microtiter plate chromatography of resins, Palivizumab (bound, yield). Format: binding, humanized.
The next assay relates to Bevacizumab Fc fragment. Kind of assay: Microtiter plate chromatography of resins, Bevacizumab Fc fragment (bound). Type of assay: binding, humanized. The protocol: Resins were assessed in packed mode by microtiter plate chromatography. For each column, approximately 30 μl of resin were transferred to a 384-well filter plate and sealed with appropriate top frits.
Columns were equilibrated with 6.7 column volumes (cv) of phosphate buffered saline (0.15 M NaCl, 20 mM sodium phosphate, pH 7.3; PBS) prior to injection. Either 3.3 cv of whole IgGs dissolved at 0.75 mg ml^−1, Fab or Fc fragments dissolved at 0.25 mg ml^−1 (all three in PBS) or host cell proteins (HCP) were injected onto columns. Antibody fragments of Bevacizumab (Fab and Fc) were prepared by cleavage of whole IgG with papain protease (3) according to the protocol of the manufacturer. […] Volumes transferred were spun through columns at 50 g for 1-2 min. During injection of samples, acceleration was reduced to 10 g and centrifugation time increased to 5-10 min. Effluent fractions were collected in 384-well plates and concentrations of protein analyzed by Bradford assay. Protein masses mi, mft and me (see below) were calculated as the product of fraction volume and measured protein concentration.
The fraction of ‘bound’ protein was calculated as the difference between the total mass of protein injected mi and the mass of protein detected in the flowthrough mft, divided by the total mass of protein injected.
the fraction of ‘bound’ protein and the ‘yield’ of protein were calculated for each resin based on data for whole IgG-antibodies. In the case of Bevacizumab fragments and host cell proteins, only the fraction of ‘bound’ protein is given. Selectivity of resins was calculated from data for Bevacizumab Whole IgG and host cell proteins. Due to limited experimental precision, selectivity was truncated beyond values of 10.

The test system of a further assay is host cell proteins (HCP). Description: Microtiter plate chromatography of resins, host cell proteins (bound). Type of assay: binding, CHO. The conditions noted are these: host cell proteins.
Assay [2] concerns the target T1, Bevacizumab. Description: Langmuir isotherms by batch adsorption. Format: binding, humanized. The conditions noted are these: Bevacizumab in PBS pH 7.3, 25° C., at least 3 h. The protocol:
Experiments were performed with Bevacizumab as antibody. Parameters of Langmuir isotherms for purified antibody were determined by batch adsorption experiments in 96-well microtiter plates. In each well, 10 μl of sorbent slurry (50% v/v) were mixed with 100 μl of protein solution. Initial concentrations varied from 0.05-5 mg ml^−1 in phosphate-buffered saline (0.15 M NaCl, 20 mM phosphate buffer, pH 7.3; PBS). Reactions were agitated vigorously at 25° C. for at least 3 h. Afterwards, antibody concentration in the supernatents were measured by Bradford assay.
Parameters of Langmuir isotherms, i.e. dissociation constants Kd and maximum capacities qm, were determined from the measured concentrations in supernatants. Parameters were estimated by numerical fitting of the model equation derived by Chase (4).

For the compound `COc1ccc(NC(=O)c2cc(-c3ccco3)n(C)n2)cc1C(=O)NCCCN` [Ligand L1, 5-[5-(2-Furyl)-1-methylpyrazol-3-yl]carboxamido-2-methoxybenzoic acid N-(3-aminopropyl)amide], in the assay on Bevacizumab Fab fragment, the “SPR binding to Bevacizumab Fab fragment” value is reported as “only minor binding”. For the same compound, in the assay with Anti RhD IgG, the “SPR binding to full length Anti RhD IgG” value is given as “clearly bound”. Besides, on Bevacizumab [1] (fraction of whole IgG Bevacizumab bound to resin), the “Bevacizumab IgG Bound (%)” value is 100%. Moreover, on Bevacizumab [1] (mass of whole IgG Bevacizumab eluted / mass injected), the “Bevacizumab IgG Yield (%)” value is given as 91%. In addition, in the assay on Tocilizumab, the “Tocilizumab Bound (%)” value turned out to be 100% and the “Tocilizumab Yield (%)” value stood at 97%. In addition, in the assay with Palivizumab, the “Palivizumab Bound (%)” value turned out to be 100% and the “Palivizumab Yield (%)” value is reported as 92%. Moreover, the “Bevacizumab Fc Bound (%)” value in the assay with Bevacizumab Fc fragment (Bevacizumab Fc fragment) was 100%. Besides, the “binding of Bevacizumab Fc-fragment” value in the assay with Bevacizumab Fc fragment (Fc 0.25 mg ml^-1 in PBS) is “bound the Fc-fragment”. Further, the “HCP Bound (%)” value in the assay with host cell proteins (HCP) is 30%. In addition, the “qm (maximum capacity, Langmuir isotherm)” value at Bevacizumab [2] worked out at 36 mg per ml resin.
